The source of these data is paper PMC11620517, “Novel hydrazone compounds with broad-spectrum antiplasmodial activity and synergistic interactions with antimalarial drugs” (Antimicrobial Agents and Chemotherapy, 2024).

One series concerns the target T1, human GST (Homo sapiens, UniProt P08263).
T1 construct: The open reading frames encoding PfGST, PbGST, and hGST were gene-synthesized; TEV cleavage site (C); Avitag (C); purchased InterRayBio, LLC; host or cells: E. coli BL21 (DE3)
T1 sequence (P08263 1-222): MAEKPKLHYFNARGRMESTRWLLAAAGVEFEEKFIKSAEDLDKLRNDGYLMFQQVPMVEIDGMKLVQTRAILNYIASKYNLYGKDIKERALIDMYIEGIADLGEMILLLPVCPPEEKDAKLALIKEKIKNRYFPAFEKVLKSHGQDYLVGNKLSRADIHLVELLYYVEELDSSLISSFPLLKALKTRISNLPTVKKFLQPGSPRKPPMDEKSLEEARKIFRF
Nature of the series: GST inhibition assay (CDNB). The following applies: 6-point 1–50 µM. It counts as biochemical. Here is the method:
(§1) Enzymatic activities of recombinant GSTs were determined spectrophotometrically using the chromogenic substrate 1-chloro-2,4-dinitrobenzene (CDNB). Recombinant GST (0.35 mg/mL) was mixed with 1 mM CDNB in 100 mM HEPES. Stock solutions (10 mM) of the CB compounds and hemin were prepared in 100% dimethyl sulfoxide (DMSO) and then diluted at 0.5% DMSO ([14]). Each inhibitor has six concentrations ranging from 1 to 50 µM. The reaction was initiated with 1 mM glutathione (GSH) after 15 minutes. Absorbance change at 340 nm was measured for 1 hour. The slope was converted to micromole per minute using Beer’s equation and the extinction coefficient for the product S-(2,4-dinitrophenyl)glutathione (ε340 nm = 9.6 mM^–1 cm^–1) ([14]). The assay was validated using human placenta GST (#G8642) as a positive control.

In series [1] the target is T2, recombinant P. falciparum GST (Plasmodium falciparum, UniProt Q8ILQ7).
T2 construct: The open reading frames encoding PfGST, PbGST, and hGST were gene-synthesized; TEV cleavage site (C); Avitag (C); purchased InterRayBio, LLC; host or cells: E. coli BL21 (DE3)
T2 sequence (Q8ILQ7 1-211): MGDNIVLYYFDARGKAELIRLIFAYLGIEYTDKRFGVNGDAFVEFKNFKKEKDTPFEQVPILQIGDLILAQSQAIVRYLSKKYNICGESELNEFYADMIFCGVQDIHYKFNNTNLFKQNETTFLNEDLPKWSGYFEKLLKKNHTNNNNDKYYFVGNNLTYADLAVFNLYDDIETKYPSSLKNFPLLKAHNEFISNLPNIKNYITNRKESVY
Nature of the series: GST inhibition assay (CDNB). It counts as biochemical. The following applies: 6-point 1–50 µM. Here is the method: as §1

Series [2] deals with recombinant P. berghei GST. Nature of the series: GST inhibition assay (CDNB). It counts as biochemical, Plasmodium berghei. Conditions: 6-point 1–50 µM. The procedure:
as §1

Another series deals with P. falciparum C2B. Put plainly: Malaria SYBR Green I-Based Fluorescence (MSF) assay, blood stages. Format: cell-based. The following applies: Plasmodium falciparum, 72 h, read-out: IC50 (µM) (±SD) for strain: C2B. The procedure:
(§2) MSF assays were performed in vitro with four P. falciparum strains: D6 (drug sensitive), TM91-C235 (multidrug resistant), W2 (CQ resistant), and C2B (multidrug resistant against ATQ). Parasite strains were kept continuously in long-term cultures as described ([22]). Pre-dosed 384-well plates containing […] serial dilutions of CB compounds (0.0098–20 µM) were prepared using the Tecan Freedom Evo liquid handling system (Tecan USA, Inc., Durham, NC, USA) and were stored at 4°C. A CQ control plate (2,000 ng/mL) was included in each run. Based on modifications of previous methods ([17], [55]), late-ring or early-trophozoite stages were cultured in pre-dosed plates with 0.3% parasitemia and 2% hematocrit. Cultures were incubated for 72 hours at 37°C in a controlled atmosphere of 5% CO2, 5% O2, and 90% N2. Lysis buffer, consisting of 20 mM Tris HCl, 5 mM EDTA, 1.6% Triton X, 0.016% saponin, and SYBR Green I dye at a 20X concentration (Invitrogen #S-7567), was added to the plates for a final 10X SYBR Green concentration. Plates containing cell culture media and lysis buffer were incubated in the dark at 25°C for 24 hours, and the relative fluorescence units (RFU) were measured using the Tecan Genios Plus (Tecan USA, Inc.).

Another series deals with P. falciparum D6. The description is as above. The following applies: Plasmodium falciparum, read-out: IC50 (µM) (±SD) for strain: D6. It counts as cell-based. The procedure: as §2
For another series, the system named is P. falciparum TM91c235. The description is as above. It counts as cell-based. Conditions: Plasmodium falciparum, read-out: IC50 (µM) (±SD) for strain: TM91c235. Here is the method:
as §2

Another series concerns P. falciparum W2. Described as above. Conditions: Plasmodium falciparum, read-out: IC50 (µM) (±SD) for strain: W2. It counts as cell-based. The procedure: as §2
The subject of series [3] is P. cynomolgi hypnozoites and hepatic schizonts. Put plainly: P. cynomolgi liver-stage inhibition assay. Format: cell-based, Plasmodium cynomolgi. Conditions: for pIC50: Plasmodium cynomolgi. The procedure:
(§3) Primary primate hepatocytes were seeded in 384-well plates and used within 2–4 days ([56]). P. cynomolgi B strain parasites were inoculated and developed into hypnozoites and schizonts. CB compounds were tested in 8-point, threefold serial dilutions (100 µM to […]) for both prophylactic (4 days starting with sporozoite addition) and radical cure (4 days starting day 4 post-inoculation) modalities ([56][–][60]). The Operetta CLS imaging system and Harmony Software 4.9 (Perkin Elmer, Waltham, MA, USA) analyzed the plates, and the percentage of inhibition (PI) was calculated in Python using equation (1), where parasitic quantities (hypnozoite and schizont counts) were normalized to the negative control ([57]). Each plate included negative (DMSO) and positive (KDU691, maduramicin, tafenoquine) controls ([58]). IC50 values were determined using an 8-point, threefold dilution format and a Python-adapted grid algorithm for fitting PI to a four-parameter logistic function ([61]).
PI = 100 ∗(1−(xy/Meanneg))

Series [4] has as its system primary primate hepatocytes. Nature of the series: hepatocyte toxicity in the P. cynomolgi liver-stage assay. Format: cell-based. The procedure:
as §3

Series [5] concerns P. berghei ookinete development (Ookluc parasites). Put plainly: P. berghei ookinete luciferase inhibition assay. Format: cell-based, Plasmodium berghei. Conditions: for pIC50: read-out: IC50 (ookinete development). The procedure:
Mice were pretreated with phenylhydrazine [6 mg/mL, intraperitoneal injection (IP)] 3 days before intravenous injection (IV) infection with P. berghei Ookluc parasites ([19], [62]). Once parasitemia exceeded 15%, the mice received PYR (1 mg/mL, IP) ([19], [62]). Twenty-four hours after PYR treatment, infected mice were assessed for at least 10 exflagellations before blood was collected by heart puncture ([19], [62]). Infected blood (1:20 dilution) was incubated with 8-point serial dilutions (2.5–75 µM) of CB compounds for 24 hours at 19°C with gentle shaking ([62], [64]). Relative luminescence units (RLU) of mature ookinetes were measured using the Promega Nano-Glo Luciferase Assay System Kit and a SpectraMax M3 Microplate Reader (Molecular Devices, San Jose, CA, USA) after 3 minutes. Giemsa blood smears confirmed ookinetes.

Another series can be described thus: in vitro. The following applies: human.
Where [6] appears, read: D6, blood stages, 72 hours, drug-sensitive strain.
Setting [7] is: blood stages, 72 hours, multidrug resistant strain.
The mark [8] stands for this setting: W2, blood stages, 72 hours, CQ resistant strain.
Where [9] appears, read: prophylactic drug treatment mode, read-out: Hypnozoite IC50.
Where [10] appears, read: prophylactic drug treatment mode, read-out: Schizont IC50.
[11] abbreviates: prophylactic drug treatment mode, read-out: Total parasite IC50.
The mark [12] stands for this setting: Plasmodium berghei, 24 h, 24 hours at 19°C, luminescence.

SMILES strings stand for the structures. pIC50: −log10 of the molar value. Read-outs that look alike come from different tables or passages of the source.

Experimental for in vitro: HepG2 cell viability was assessed using the Cell Proliferation kit with trypan blue exclusion. […] After incubation, a 1.5-mg/mL Cell Proliferation kit solution diluted in complete MEM medium was added to each well, followed by 1-hour dark incubation at 25°C. After aspiration of media and inhibitors, the plates were dried in a hood for 15 minutes, and acidified isopropyl alcohol was added to dissolve formazan dye crystals. The plates were then rotated for 15–30 minutes, and absorbance was determined using a Perkin Elmer Ensight plate reader.

As for `O=C(N/N=C/c1c(O)ccc2ccccc12)c1cc([N+](=O)[O-])cc([N+](=O)[O-])c1` [CB-61], the GST inhibition result (on human GST; in [1]; in [2]) was “did not inhibit” each time. For the same compound, the IC50 in the series with P. falciparum C2B was 0.3 µM; with P. falciparum D6 (D6, 72 h), 0.2 µM; in the series with P. falciparum TM91c235 (72 h), 0.26 µM; in the series with P. falciparum W2 (W2, 72 h), 0.22 µM. For the same compound, the pIC50 in series [3] (read-out: Hypnozoite IC50) was < 5.00; in series [3] (read-out: Schizont IC50), < 5.00; in series [3] (read-out: Total parasite IC50), < 5.00; in series [5] (Plasmodium berghei, 24 h), 4.53. Further, the Toxicity in [4] is listed as >10 µM. Further, in “in vitro”, the IC50 at 48 h was > 20 µM.
Consider `COc1cccc(/C=N/NC(=O)c2cc(-c3ccccc3)nc3ccccc23)c1O` [CB-58], for which the GST inhibition entry (on human GST; in series [1]; in [2]) was “did not inhibit” in each case. Besides, the IC50 with P. falciparum C2B was found to be 8.83 µM; in the series with P. falciparum D6 (setting [6]) it was 8.44 µM; with P. falciparum TM91c235 (setting [7]) it was 10.6 µM; with P. falciparum W2 (setting [8]), 5.63 µM. Besides, the pIC50 in series [3] (setting [9]) is < 5.00; in series [3] (setting [10]) it was < 5.00; in [3] (setting [11]), < 5.00; in series [5] (setting [12]) it was 4.49. Besides, the Toxicity in series [4] is listed as >10 µM. Besides, the IC50 at 48 h in “in vitro” (HepG2 cells) was > 20 µM.
Regarding `O=C(N/N=C/c1cc(Br)ccc1O)/C(=C/C=C/c1ccccc1)NC(=O)c1ccccc1` [CB-50], the GST inhibition result (on human GST; in [1]; in [2]) was “did not inhibit” in each case. The IC50 in the series on P. falciparum C2B was 1.89 µM; with P. falciparum D6 (setting [6]), 1.14 µM; in the series on P. falciparum TM91c235 (setting [7]) it was 1.84 µM; with P. falciparum W2 (setting [8]) it was 1.15 µM. The pIC50 in [3] (setting [9]), in series [3] (setting [10]) and in series [3] (setting [11]) was < 5.00 in each case. In series [4], the Toxicity was >10 µM. In series [5] (dose–response 2.5–75 µM), the “activity in ookinete formation” value is “no activity”. Besides, the IC50 at 48 h in “in vitro” (HepG2 cells) is > 20 µM.
In the case of `COc1cccc(/C=N/NC(=O)c2nc(-c3ccccc3)cc(-c3ccccc3)n2)c1O` [CB-41], the GST inhibition result (on human GST; in series [1]; in series [2]) was “did not inhibit” each time. Also, the 50% inhibitory concentration (IC50) is 2.73 µM with P. falciparum C2B, 2.26 µM with P. falciparum D6 (setting [6]), 2.26 µM in the series with P. falciparum TM91c235 (setting [7]) and 2.71 µM in the series with P. falciparum W2 (setting [8]). The negative-log IC50 (pIC50) in [3] (setting [9]) was 5.06; in series [3] (setting [10]), 5.08; in series [3] (setting [11]) it was 5.07; in series [5] (24 hours at 19°C, luminescence) it was 5.08; in [5] (setting [12]), 4.78. The “antiplasmodial activity on liver stages” value in series [3] (radical cure mode) is “did not show antiplasmodial activity”. Also, the Toxicity in series [4] is recorded as >10 µM. The 50% inhibitory concentration (IC50) at 48 h in the series “in vitro” (HepG2 cells) was > 20 µM.
Consider `O=C(NN=Cc1ccccc1O)c1cc(-c2ccccc2)nc2ccccc12` [CB-53], for which the GST inhibition entry (at human GST; in series [1]; in series [2]) was “did not inhibit” in each case. For the same compound, the IC50 is > 20 µM with P. falciparum C2B, > 20 µM in the series on P. falciparum D6 (setting [6]), 13.9 µM in the series with P. falciparum TM91c235 (setting [7]) and > 20 µM in the series on P. falciparum W2 (setting [8]). Also, the negative-log IC50 (pIC50) in series [3] (setting [9]) was < 5.00; in series [3] (setting [10]), < 5.00; in series [3] (setting [11]), < 5.00; in series [5] (setting [12]) it was 4.83. Further, the Toxicity in [4] is reported as >10 µM. In addition, the half-maximal inhibitory concentration (IC50) at 48 h in “in vitro” (HepG2 cells) is > 20 µM.
